Source: PubChem BioAssay AID328 (DTP/NCI, 2004)
“And” between values parts separate entries of the source, which are not always exact repeats. Identical values can stand only once. Toxic doses and inconclusive results are not listed. The calls were made as follows: active = survival T/C of 150% or more; inactive = T/C below 125% in these data.

Tested on: BDF1 mice, P388 leukemia ip, median survival T/C
Test: NCI In Vivo Anticancer Drug Screen. Data for tumor model P388 Leukemia (intraperitoneal) in B6D2F1 (BDF1) mice
Conditions: endpoint: median survival time, higher = longer survival
Procedure, shortened: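 Read-out is survival of treated animals expressed relative to the vehicle group, as a T/C ratio.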

[1] = dose: 100.0 mg/kg/injection, schedule: Q04DX003 (ip), vehicle: saline with Tween-80
[2] = dose: 200.0 mg/kg/injection, schedule: Q04DX003 (ip), vehicle: saline with Tween-80
[3] = dose: 400.0 mg/kg/injection, schedule: Q04DX003 (ip), vehicle: saline with Tween-80
[4] = dose: 100.0 mg/kg/injection, schedule: Q01DX009 (ip), vehicle: saline with Tween-80
[5] = dose: 200.0 mg/kg/injection, schedule: Q01DX009 (ip), vehicle: saline with Tween-80
[6] = dose: 25.0 mg/kg/injection, schedule: Q01DX009 (ip), vehicle: saline
[7] = dose: 50.0 mg/kg/injection, schedule: Q01DX009 (ip), vehicle: saline
[8] = dose: 100.0 mg/kg/injection, schedule: Q01DX009 (ip), vehicle: saline
[9] = dose: 50.0 mg/kg/injection, schedule: Q01DX009 (ip), vehicle: saline with Tween-80
[10] = dose: 100.0 mg/kg/injection, schedule: Q04DX003 (ip), vehicle: saline
[11] = dose: 400.0 mg/kg/injection, schedule: Q04DX003 (ip), vehicle: saline

Measured: T/C

C[C@]12CC[C@H](OC3OC(CO)C(O)C(O)C3O)C[C@H]1CC[C@@H]1[C@@H]2CC[C@]2(C)[C@@H](C3=CCOC3=O)CC[C@]12O (stereo not given in full)
inactive: dose: 0.1 mg/kg/injection, schedule: Q01DX010 (ip), vehicle: saline 110 % of control | dose: 0.2 mg/kg/injection, schedule: Q01DX010 (ip), vehicle: saline 105 % of control | dose: 0.25 mg/kg/injection, schedule: Q01DX010 (ip), vehicle: saline 100 % of control | dose: 0.4 mg/kg/injection, schedule: Q01DX010 (ip), vehicle: saline 105 % of control | dose: 0.5 mg/kg/injection, schedule: Q01DX010 (ip), vehicle: saline 100 % of control | dose: 0.8 mg/kg/injection, schedule: Q01DX010 (ip), vehicle: saline 100 % of control | dose: 1.0 mg/kg/injection, schedule: Q01DX010 (ip), vehicle: saline 100 % of control

O=c1cc(Cl)c(=O)[nH][nH]1
inactive: dose: 50.0 mg/kg/injection, schedule: Q01DX001 (ip), vehicle: saline 101 % of control | dose: 100.0 mg/kg/injection, schedule: Q01DX001 (ip), vehicle: saline 118 % of control | [1] 100 % of control | dose: 200.0 mg/kg/injection, schedule: Q01DX001 (ip), vehicle: saline 98 % of control | [2] 91 % of control | [3] 91 % of control

NC1CSSC1
inactive: dose: 0.39 mg/kg/injection, schedule: Q01DX009 (ip), vehicle: water 93 % of control and 108 % of control | dose: 1.56 mg/kg/injection, schedule: Q04DX003 (ip), vehicle: water 97 % of control | dose: 3.12 mg/kg/injection, schedule: Q04DX003 (ip), vehicle: water 106 % of control | dose: 6.25 mg/kg/injection, schedule: Q01DX009 (ip), vehicle: water 91 % of control and 94 % of control and 96 % of control | dose: 6.25 mg/kg/injection, schedule: Q04DX003 (ip), vehicle: water 105 % of control

COc1ccc(/C=C/c2ccnc3ccccc23)cc1
inactive: [4] 93 % of control | [5] 111 % of control | dose: 400.0 mg/kg/injection, schedule: Q01DX009 (ip), vehicle: saline with Tween-80 93 % of control

NC(=S)c1ccc[n+](Cc2c(Cl)cccc2Cl)c1
inactive: dose: 50.0 mg/kg/injection, schedule: Q04DX002 (ip), vehicle: saline with Tween-80 110 % of control | dose: 100.0 mg/kg/injection, schedule: Q04DX002 (ip), vehicle: saline with Tween-80 101 % of control

CN(c1ccccc1)c1cc2c(cc1[N+](=O)[O-])no[n+]2[O-]
inactive: dose: 15.0 mg/kg/injection, schedule: Q01DX009 (ip), vehicle: saline with Tween-80 118 % of control | dose: 60.0 mg/kg/injection, schedule: Q01DX009 (ip), vehicle: saline with Tween-80 113 % of control

CN(C)c1ccc2c(c1)Cc1cc(N=C3C=CC(=O)O3)ccc1-2
inactive: dose: 1.56 mg/kg/injection, schedule: Q01DX009 (ip), vehicle: Klucel (hydroxypropylcellulose) (HPC) 109 % of control | dose: 3.12 mg/kg/injection, schedule: Q01DX009 (ip), vehicle: Klucel (hydroxypropylcellulose) (HPC) 100 % of control | dose: 6.25 mg/kg/injection, schedule: Q01DX009 (ip), vehicle: Klucel (hydroxypropylcellulose) (HPC) 90 % of control | [6] 92 % of control | [7] 100 % of control

OCCNCCNc1ccnc2cc(Cl)ccc12
inactive: dose: 12.5 mg/kg/injection, schedule: Q01DX009 (ip), vehicle: saline 102 % of control | [6] 115 % of control | [7] 116 % of control | [8] 118 % of control

O=C1OC(O)(c2ccccc2)C(c2ccccc2)=C1c1ccccc1 (stereo not given)
inactive: [9] 119 % of control | [4] 110 % of control | [5] 108 % of control

CC(C)(C)CC(C)(C)c1ccc(O)cc1
inactive: [10] 100 % of control | dose: 200.0 mg/kg/injection, schedule: Q04DX003 (ip), vehicle: saline 115 % of control | [11] 120 % of control

S=C(S)NCCNC(=S)S
inactive: dose: 40.0 mg/kg/injection, schedule: Q01DX009 (ip), vehicle: saline 120 % of control | dose: 60.0 mg/kg/injection, schedule: Q01DX009 (ip), vehicle: saline 108 % of control | dose: 85.0 mg/kg/injection, schedule: Q04DX003 (ip), vehicle: saline 109 % of control | dose: 88.0 mg/kg/injection, schedule: Q01DX009 (ip), vehicle: saline 100 % of control | dose: 88.0 mg/kg/injection, schedule: Q04DX003 (ip), vehicle: saline 109 % of control | [8] 115 % of control | [10] 109 % of control and 118 % of control | dose: 132.0 mg/kg/injection, schedule: Q04DX003 (ip), vehicle: saline 104 % of control | dose: 150.0 mg/kg/injection, schedule: Q01DX009 (ip), vehicle: saline 115 % of control | dose: 300.0 mg/kg/injection, schedule: Q04DX003 (ip), vehicle: saline 109 % of control | dose: 350.0 mg/kg/injection, schedule: Q01DX009 (ip), vehicle: saline 120 % of control | [11] 100 % of control and 118 % of control

CCCCCCCCCCCCN(C)C
inactive: dose: 12.5 mg/kg/injection, schedule: Q04DX003 (ip), vehicle: saline 104 % of control | dose: 25.0 mg/kg/injection, schedule: Q04DX003 (ip), vehicle: saline 109 % of control | dose: 50.0 mg/kg/injection, schedule: Q04DX003 (ip), vehicle: saline 118 % of control

C#CC(C)OCC1CNC(=S)O1 (stereo not given)
inactive: dose: 50.0 mg/kg/injection, schedule: Q04DX003 (ip), vehicle: saline with Tween-80 110 % of control | [1] 100 % of control | [2] 115 % of control | [3] 110 % of control

CC1(C)Oc2nc(N)nc(N)c2C1c1ccc(Cl)cc1 (stereo not given)
inactive: dose: 100.0 mg/kg/injection, schedule: Q04DX003 (ip), vehicle: Klucel (hydroxypropylcellulose) (HPC) 104 % of control | dose: 200.0 mg/kg/injection, schedule: Q04DX003 (ip), vehicle: Klucel (hydroxypropylcellulose) (HPC) 100 % of control | dose: 400.0 mg/kg/injection, schedule: Q04DX003 (ip), vehicle: Klucel (hydroxypropylcellulose) (HPC) 95 % of control

O=C1/C(=C/c2ccco2)CCC2CC3(CCC12)OCCO3 (stereo not given)
inactive: dose: 100.0 mg/kg/injection, schedule: Q04DX003 (ip), vehicle: other 108 % of control | dose: 200.0 mg/kg/injection, schedule: Q04DX003 (ip), vehicle: other 91 % of control | dose: 400.0 mg/kg/injection, schedule: Q04DX003 (ip), vehicle: other 108 % of control

CCCN(CCC)CC(O)c1cc(C(F)(F)F)nc2c(C(F)(F)F)cccc12 (stereo not given)
inactive: [9] 103 % of control | [4] 100 % of control | [5] 97 % of control

CCCC(=O)NO
inactive: dose: 100.0 mg/kg/injection, schedule: Q01DX009 (ip), vehicle: saline sonified 100 % of control | dose: 200.0 mg/kg/injection, schedule: Q01DX009 (ip), vehicle: saline sonified 100 % of control | dose: 400.0 mg/kg/injection, schedule: Q01DX009 (ip), vehicle: saline sonified 100 % of control

O=C1NN(CCO)C(=S)Nc2ccccc21
inactive: dose: 50.0 mg/kg/injection, schedule: Q01DX009 (ip), vehicle: Klucel (hydroxypropylcellulose) (HPC) 100 % of control | dose: 100.0 mg/kg/injection, schedule: Q01DX009 (ip), vehicle: Klucel (hydroxypropylcellulose) (HPC) 100 % of control | dose: 200.0 mg/kg/injection, schedule: Q01DX009 (ip), vehicle: Klucel (hydroxypropylcellulose) (HPC) 90 % of control

CC(C)CC(=O)C1=C(O)C(Nc2ccccc2)=CC(=O)C1=Nc1ccccc1
inactive: [1] 106 % of control | [2] 118 % of control | [3] 111 % of control

CC(C)(O)c1cc(Cl)ccc1Sc1ccccc1
inactive: [1] 105 % of control | [2] 91 % of control | [3] 108 % of control
